Assay results as given in US20070129433A1, “Diphenylamine derivatives” (priority 2003, published 2007).
pIC50: −log10 of the molar value.

Key:
Human LDL = assay: Antioxidant effect: inhibition of copper-induced oxidation of human LDL (fluorescence); format: biochemical; settings: human LDL 120 μg/ml + CuCl2, 37° C., fluorescence difference between 2 h and 24 h readings; from three concentrations
Experimental: Human LDLs placed in aqueous solution in the presence of cupric ions, become spontaneously oxidized on their protein component, apolipoprotein-B. This oxidation makes the particle fluorescent, which is exploited to measure a pharmacological effect.
The reactions and measurements are performed in black 96-well plates. 10 μl of a solution of the test product dissolved in dimethyl sulfoxide are first mixed with 170 μl of a solution of human LDL at a concentration of 120 μg/ml and 20 μl of 100 μM CuCl2. After stirring, the mixture is incubated for 2 hours at 37° C., and a first fluorescence reading is taken (excitation at 360 nm, reading at 460 nm). The mixture is then incubated for a further 22 hours, to take a second reading under the same conditions. The difference is proportionately smaller the greater the anti-oxidant power of the test product. Probucol is used as reference product at a concentration of 10 μM.
The concentrations that inhibit 50% (IC50) of the oxidation are prepared from three concentrations of the test product. They are given in Table I below for some of the compounds given as examples below.

fatty Zucker rats = assay: Hypotriglyceridaemiant activity in fatty Zucker rats; format: in vivo, rat; settings: 9-week-old male Zucker rats, 300 mg/kg/day p.o. for eight days, plasma after fasting four hours
Experimental: The compound of Example 2 was tested on fatty Zucker rats (Zucker L. M. et al., 1961, Fatty a new mutation in the rat, J. Hered., 52: 275278). This animal is hyperphagic, obese and hyperinsulinaemic. It develops resistance to insulin, it is hyperlipidaemic, and has a large hypertriglyceridaemia. 9-week-old male Zucker rats were treated for eight days with this compound at a dose of 300 mg/kg/day p.o. After fasting for four hours, a blood sample is taken to recover the plasma. Under these conditions, the compound of Example 2 induces a large reduction in triglycerides, of 55% (p<0.01), and the insulinaemia is down by 59% (p<0.05).

| Compound | pIC50 (Human LDL) | reduction in triglycerides (fatty Zucker rats; p<0.01) | insulinaemia down by (fatty Zucker rats; p<0.05) |
| --- | --- | --- | --- |
| COc1ccc(Nc2ccc(C(=O)O)cc2)cc1 [Example 2, 4-[(4-Methoxyphenyl)amino]benzoic acid] | 4.97 | 55% | 59% |
| COc1ccc(Nc2ccc(C#N)cc2)cc1 [Example 6, 4-[(4-Methoxyphenyl)amino]benzonitrile] | 5.07 | – | – |
| COc1ccc(Nc2ccc(CO)cc2)cc1 [Example 8, {4-[(4-Methoxyphenyl)amino]phenyl}methanol] | 5.24 | – | – |
| O=C(O)c1ccc(Nc2ccc([N+](=O)[O-])cc2)cc1 [Example 13] | 5.01 | – | – |
| COc1ccc(Nc2ccc(CC(=O)O)cc2)cc1 [Example 17] | 4.95 | – | – |
| COc1ccc(Nc2ccc(C(N)=O)cc2)cc1 [Example 42] | 4.73 | – | – |
